Test results published in patent US7307101B2, “Use of 20-HETE synthesizing enzyme inhibitors as therapy for cerebral vascular disease” (MCW Research Foundation, Inc., priority 2000, dated 2007).

Legend:
[1] = system: EET formation in rat renal microsomes; test: EET formation in rat renal microsomes ([3H]-AA, Example 3); assay type: biochemical; details: highest concentration studied, 1,000 ng/ml or 5 μM
Procedure: All procedure was carried out at 4° C. Renal cortex was pooled from twenty male SHR rats (6 weeks of age). They were homogenized extensively in lysis buffer (20 mM HEPES, pH 7.4, 1 mM EDTA, 100 μM p-(amidinophenyl)metanesulfonyl fluoride and 250 mM sucrose), and centrifuged at 16,000×g for 10 min. Supernatant was further centrifuged at 16,000×g for 30 min. Soluble fraction was collected and centrifuged at 200,000×g for 30 min. The resulting pellet was suspended in 50 mM MOPS buffer.
The reaction was terminated by adding formic acid and acetonitrile to a final concentration of 1% and 50%, respectively.

[2] = HET0016 levels in plasma and brain; assay type: in vivo; details: rat; for concentration at 1 h: iv
Procedure: Measurement of HET0016 levels in plasma and brain. […] After a one hour equilibration period, the rats were anesthesized with pentobarbital and a blood sample was collected from the jugular vein. The rats were then sacrificed and the brain was removed, weighed and homogenized in 3 volumes of 0.9% NaCl solution using a Physcotron homogenizer (Nition-Ikakikai, Chiba, Japan). […] The samples were mixed with 1 ml of acetonitrile, centrifuged and 20 μl of the clear supernatant was injected into the LC/MS. The samples were separated on a 200×4.6 mm Capcellpak UG 120 ODS column (Shiseido Corp., Tokyo, Japan) and eluted with acetonitrile:water (72/28). Peaks were monitored using a Sciex API 3000 mass spectrometer (Perkin Elmer Sciex, Ontario, Canada) tuned to detect the precursor to product transitions specific for each analyte.

[3] = molecular target: T1, PGH1 synthase (Ovis aries, UniProt P05979); test: COX activity (conversion of AA to PGE2); assay type: biochemical, ram; details: 10^−6 M
T1 construct: the purified enzyme from ram seminal vesicles PGH1 synthase; purchased Cayman Chemical Co., Ann Arbor, Mich; host or cells: ram seminal vesicles (tissue-purified)
T1 sequence (P05979 25-600): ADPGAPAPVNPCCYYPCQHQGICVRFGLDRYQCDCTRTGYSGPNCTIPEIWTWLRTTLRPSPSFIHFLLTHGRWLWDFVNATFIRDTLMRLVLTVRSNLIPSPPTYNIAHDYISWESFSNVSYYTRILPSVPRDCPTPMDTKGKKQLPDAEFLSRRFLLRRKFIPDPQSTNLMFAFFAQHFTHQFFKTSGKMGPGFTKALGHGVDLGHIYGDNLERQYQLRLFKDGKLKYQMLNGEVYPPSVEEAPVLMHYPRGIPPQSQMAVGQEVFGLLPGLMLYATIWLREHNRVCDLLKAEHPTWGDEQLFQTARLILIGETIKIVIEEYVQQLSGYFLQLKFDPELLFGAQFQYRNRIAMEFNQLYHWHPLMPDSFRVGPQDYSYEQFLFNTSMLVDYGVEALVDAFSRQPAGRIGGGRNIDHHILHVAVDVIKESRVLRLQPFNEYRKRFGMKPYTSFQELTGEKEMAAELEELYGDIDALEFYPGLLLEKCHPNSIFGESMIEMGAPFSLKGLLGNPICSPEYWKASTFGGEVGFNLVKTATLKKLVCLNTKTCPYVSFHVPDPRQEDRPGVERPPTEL
Procedure: Reaction mixtures were incubated at 37° C. for 2 min before the addition of AA and for 2 min thereafter. All samples were run in duplicate. Amounts of PGE2 were determined by EIA after 100-400 times dilution with Tris buffer.

[4] = system: rats with MCA occlusion; test: Infarct volume after transient MCA occlusion; assay type: in vivo, rat; details: 24 h
Procedure: Adult male Wistar rats (200-250 g) were anesthetized with 2% halothane in O2 gas. The right external carotid artery (ECA) was carefully dissected. A silicon-coated suture (18 mm-long) was inserted from the lumen of the ECA to the right internal carotid artery (ICA) to occlude the origin of the right middle cerebral artery (MCA). Body temperature was maintained at 37° C. with a heating pad. […] One hour after MCA occlusion, the thread was removed to allow reperfusion of the ischemic area.
To measure infarct volume, rats were killed after 24 hours of reperfusion following transient occlusion of the MCA. Brains were flushed transcardially with physiological saline, removed from the skull, and cut into 2-mm coronal sections. The slices were immersed in 2% triphenyltetrazolium chloride (TTC) solution at 37° C. for 30 minutes.
All values were presented as mean±SEM. For statistical analysis, Dunnett's multiple-range test was used.

[5] = system: rat 20-HETE synthesizing enzyme; test: Synthesis of 20-HETE in rat renal microsomes ([14C]-AA); assay type: biochemical; details: 1.5 nM, lowest dose tested
Procedure: Microsomes were prepared by differential centrifugation as previously described. […] The reactions were terminated by acidification to pH 3.5 using 0.1 mol/L formic acid and extracted with ethyl acetate. Metabolites were separated using a 25 cm×2 mm i.d. (Supelco Inc., Bellefonte, Pa.) C18-reverse phase HPLC column and a linear elution gradient ranging from acetonitrile:water: acetic acid (50/50/0.1) to acetonitrile:acetic acid (100/0.1) over a 40 min period. The radioactive products were monitored using a radioactive flow detector (Model 120, Radiomatic Instrument Co., Tampa, Fla.).

[6] = system: canine neutrophils; test: Formation of 20-HETE by canine neutrophils; assay type: cell-based; details: Canis lupus familiaris, Neutrophil, read-out: IC50, formation of 20-HETE by canine neutrophils; 2×10^7 cells in dog CSF, 2 hours, n=4
Procedure: Experiments were performed to determine the cell type in canine blood responsible for the formation of 20-HETE. Experiments were performed using 4 male Beagle dogs. The dogs were anesthetized with sodium pentobarbital (30 mg/kg, i.v.). Venous blood sample was drawn and immediately mixed with 1:9 volume of trisodium citrate (3.8%) as an anticoagulant. Neutrophils were prepared to 98% purity using a percoll gradient technique. CSF was drawn from the Cistema Magna by using a 20 gauge needle. Only clear CSF sample without blood was used for the present experiment. The CSF was oxygenated with mixed gas (95% O2, 5% CO2) for 30 min. Neutrophils were suspended in the oxygenated CSF and cell numbers were adjusted to 2×10^6, 6.3×10^6, and 2×10^7. Whole blood (20 μl), red blood cells (20 μl) or neutrophils were incubated in the oxygenated CSF (180 μl) including 1 mM NADPH and [^3H]-AA at 37° C. for 2 hrs. The reaction was terminated by the addition of formic acid. One hundred percent acetonitrile (200 μl) was added to the reaction buffer to adjust final concentration to 50% for HPLC separation. […] The labeled products formed were monitored using a radioactive flow detector (raytest GmbH, Straubenhardt, Germany).
The reactions were terminated by addition of formic acid. […] The labeled metabolites were monitored using a radioactive flow detector ramona 93 (raytest GmbH, Straubenhardt, Germany).

Q: For `CCCCc1ccc(N=CNO)c(C)c1` [HET0016, N-hydroxy-N′-(4-butyl-2-methylphenyl)-formamidine], which EET formation [1] is on record?
A: The EET formation was “did not inhibit”.

Q: And the concentration at 1 h ([2]; brain, 1 hr after i.v. 10 mg/kg)?
A: Its concentration at 1 h is 7.2 µM.

Q: What about the concentration at 1 h ([2]; brain, 1 hr after i.v. 10 mg/kg, n=3) of the same compound?
A: Its concentration at 1 h is 1490 ng/g.

Q: What about the concentration at 1 h ([2]; plasma, 1 hr after i.v. 10 mg/kg, n=3) of the same compound?
A: Its concentration at 1 h is 570 ± 90 ng/mL.

Q: And the HET0016 level in plasma (molar) ([2]; 1 hr after i.v. 10 mg/kg)?
A: The HET0016 level in plasma (molar) was 2.8 µM.

Q: What about the concentration at 1 h ([2]; plasma, one hour after i.v. 10 mg/kg body weight) of the same compound?
A: Its concentration at 1 h is 2.8 µM.

Q: What about the inhibition at 1 µM [3] of the same compound?
A: Its inhibition at 1 µM is 20%.

Q: And the infarct volume ([4]; 0.1 mg/kg i.v. just after reperfusion, n=10)?
A: The infarct volume was 10.7±2.6%.

Q: And the infarct volume ([4]; 1 mg/kg i.v. just after reperfusion, n=17)?
A: The infarct volume was 9.7±2.1%.

Q: And the “inhibition of rat 20-HETE synthesizing enzymes” value [5]?
A: The value was “about 20%”.

Q: What about the IC50 [6] of the same compound?
A: The IC50 was 10.2 ± 1.3 nM.
